For test [1], the target named is EeAChE (Electrophorus electricus acetylcholinesterase) (Electrophorus electricus, UniProt O42275). As to the kind of experiment: AChE inhibition assay. The class given is biochemical, electric eel.
In another test the target is hBACE 1 (Homo sapiens, UniProt P56817). In words: BACE 1 FRET inhibition assay. Type of test: biochemical. The following applies: human BACE 1.
Setting [2] is: hBACE 1 IC50 (μM) ± SD, mean ± SD, n = 3, FRET assay.
[3] abbreviates: read-out: EeAChE IC50 (μM) ± SD, mean ± SD, n = 3, AChE from electric eel, Ellman assay.
The mark [4] stands for this setting: read-out: hBACE 1 IC50 (μM) ± SD, mean ± SD, n = 3, FRET assay.

Data on 15 molecules can be found in PMC11287240 (RSC Advances, 2024).

Each structure is given as a SMILES string. Read-outs that look alike come from different tables or passages of the source.

Sequence of hBACE 1 (P56817 46-501): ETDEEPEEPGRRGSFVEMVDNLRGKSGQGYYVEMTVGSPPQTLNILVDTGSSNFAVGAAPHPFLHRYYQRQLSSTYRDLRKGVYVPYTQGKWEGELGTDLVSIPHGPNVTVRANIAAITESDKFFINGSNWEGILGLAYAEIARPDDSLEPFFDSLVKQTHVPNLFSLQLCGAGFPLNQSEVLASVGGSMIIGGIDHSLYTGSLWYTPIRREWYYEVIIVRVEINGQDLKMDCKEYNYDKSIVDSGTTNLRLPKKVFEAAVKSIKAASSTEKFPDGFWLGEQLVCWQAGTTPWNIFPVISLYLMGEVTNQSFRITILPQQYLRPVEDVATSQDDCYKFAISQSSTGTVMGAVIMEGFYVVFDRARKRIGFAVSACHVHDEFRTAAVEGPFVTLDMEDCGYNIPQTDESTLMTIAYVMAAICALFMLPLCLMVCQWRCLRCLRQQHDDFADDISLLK
Sequence of EeAChE (Electrophorus electricus acetylcholinesterase) (O42275 24-633): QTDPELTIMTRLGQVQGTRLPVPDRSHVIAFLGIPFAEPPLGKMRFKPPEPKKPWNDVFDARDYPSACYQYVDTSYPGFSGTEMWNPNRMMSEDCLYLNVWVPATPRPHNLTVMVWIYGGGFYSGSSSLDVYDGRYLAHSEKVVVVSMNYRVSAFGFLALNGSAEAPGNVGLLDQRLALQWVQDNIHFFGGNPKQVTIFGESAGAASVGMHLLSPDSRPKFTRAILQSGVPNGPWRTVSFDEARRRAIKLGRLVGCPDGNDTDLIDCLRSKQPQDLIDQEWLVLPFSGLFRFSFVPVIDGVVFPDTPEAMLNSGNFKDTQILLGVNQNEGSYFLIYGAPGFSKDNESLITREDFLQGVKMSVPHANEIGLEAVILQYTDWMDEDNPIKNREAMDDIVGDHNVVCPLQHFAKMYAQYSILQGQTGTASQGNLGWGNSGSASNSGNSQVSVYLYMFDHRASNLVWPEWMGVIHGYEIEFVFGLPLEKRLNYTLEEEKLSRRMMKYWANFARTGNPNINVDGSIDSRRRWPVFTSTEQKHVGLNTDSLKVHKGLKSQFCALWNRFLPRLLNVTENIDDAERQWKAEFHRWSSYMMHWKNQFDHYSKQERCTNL

Take `[H]/N=C(/N)NN=C(/C=C/c1ccc(C(C)C)cc1)c1cn(Cc2cc(F)ccc2F)c2ccccc12` [Compound 3f, (Z)-2-((E)-1-(1-(2,5-Difluorobenzyl)-1H-indol-3-yl)-3-(4-isopropylphenyl)allylidene)hydrazine-1-carboximidamide]: the IC50 in test [1] was 167 ± 2.12 µM; at hBACE 1 (setting [2]), 82.1 ± 2.74 µM; against hBACE 1 (hBACE 1 PIC50 (μM)) it was 81.3 µM.

Regarding `[H]/N=C(/N)NN=C(/C=C/c1ccccc1)c1cn(Cc2cccc(C#N)c2)c2ccccc12` [Compound 2j, (Z)-2-((E)-1-(1-(3-Cyanobenzyl)-1H-indol-3-yl)-3-phenylallylidene)hydrazine-1-carboximidamide], the IC50 was 75.91 ± 0.32 µM in test [1], 178.2 ± 0.92 µM at hBACE 1 (setting [2]) and 178 µM at hBACE 1 (hBACE 1 PIC50 (μM)).

Turning to `[H]/N=C(/N)NN=C(/C=C/c1ccc(C)cc1)c1cn(Cc2ccccc2)c2ccccc12` [Compound 1k, (Z)-2-((E)-1-(1-Benzyl-1H-indol-3-yl)-3-(p-tolyl)allylidene)hydrazine-1-carboximidamide], the results for the IC50 (in test [1]; against hBACE 1 (setting [2]); at hBACE 1 (hBACE 1 PIC50 (μM))) were 186 ± 2.69 µM, 132.1 ± 0.28 µM and 132 µM, respectively.

As for `[H]/N=C(/N)NN=C(/C=C/c1ccccc1)c1cn(Cc2cc(C(F)(F)F)cc(C(F)(F)F)c2)c2ccccc12` [Compound 2c, (Z)-2-((E)-1-(1-(3,5-Bis(trifluoromethyl)benzyl)-1H-indol-3-yl)-3-phenylallylidene)hydrazine-1-carboximidamide], the 50% inhibitory concentration (IC50) in test [1] was 56.6 ± 0.98 µM; against hBACE 1 (setting [2]), 70 ± 0.87 µM; on hBACE 1 (hBACE 1 PIC50 (μM)) it was 70.8 µM.

With `[H]/N=C(/N)NN=C(/C=C/c1ccccc1C)c1cn(Cc2ccccc2)c2ccccc12` [Compound 1r, (Z)-2-((E)-1-(1-Benzyl-1H-indol-3-yl)-3-(o-tolyl)allylidene)hydrazine-1-carboximidamide], the IC50 in test [1] was 46.8 ± 1.83 µM; against hBACE 1 (setting [2]), 206 ± 3.75 µM; on hBACE 1 (hBACE 1 PIC50 (μM)) it was 204 µM.

With `[H]/N=C(/N)NN=C(/C=C/c1ccc(F)cc1F)c1cn(Cc2ccccc2)c2ccccc12` [Compound 1m, (Z)-2-((E)-1-(1-Benzyl-1H-indol-3-yl)-3-(2,4-difluorophenyl)allylidene)hydrazine-1-carboximidamide], in test [1] (AChE from electric eel), the “EeAChE PIC50” value worked out at 3.83 µM. In addition, the IC50 in test [1] (setting [3]) worked out at 148 ± 3.11 µM; at hBACE 1 (setting [4]), 12.8 ± 0.5 µM. In addition, at hBACE 1, the “hBACE 1 PIC50” value was 4.89 µM.

On to `[H]/N=C(/N)NN=C(/C=C/c1cccc(F)c1)c1cn(Cc2ccccc2)c2ccccc12` [Compound 1f, (Z)-2-((E)-1-(1-Benzyl-1H-indol-3-yl)-3-(3-fluorophenyl)allylidene)hydrazine-1-carboximidamide], for which the IC50 in test [1] was 67 ± 1.95 µM; on hBACE 1 (setting [2]), 88.59 ± 0.32 µM; on hBACE 1 (hBACE 1 PIC50 (μM)), 89.1 µM.

In the case of `[H]/N=C(/N)NN=C(/C=C/c1ccc(C(F)(F)F)cc1)c1cn(Cc2ccc(C(F)(F)F)cc2)c2ccccc12` [Compound 3a, (Z)-2-((E)-1-(1-(4-(Trifluoromethyl)benzyl)-1H-indol-3-yl)-3-(4-(trifluoromethyl)phenyl)allylidene)hydrazine-1-carboximidamide], the “EeAChE PIC50” value in test [1] (AChE from electric eel) was 4.42 µM. Further, the half-maximal inhibitory concentration (IC50) in test [1] (setting [3]) came to 38.4 ± 3.46 µM; on hBACE 1 (setting [4]), 222.3 ± 0.49 µM. In addition, the “hBACE 1 PIC50” value on hBACE 1 was 3.65 µM.

Take `[H]/N=C(/N)NN=C(/C=C/c1ccc(C(C)C)cc1)c1cn(Cc2ccccc2)c2ccccc12` [Compound 1d, (Z)-2-((E)-1-(1-Benzyl-1H-indol-3-yl)-3-(4-isopropylphenyl)allylidene)hydrazine-1-carboximidamide]: the half-inhibitory concentration (IC50) in test [1] was 146 ± 3.18 µM; against hBACE 1 (setting [2]), 11.7 ± 0.15 µM; on hBACE 1 (hBACE 1 PIC50 (μM)), 11.7 µM.

Turning to `[H]/N=C(/N)NN=C(/C=C/c1ccccc1)c1cn(Cc2ccccc2F)c2ccccc12` [Compound 2h, (Z)-2-((E)-1-(1-(2-Fluorobenzyl)-1H-indol-3-yl)-3-phenylallylidene)hydrazine-1-carboximidamide], the 50% inhibitory concentration (IC50) in test [1] is 62.86 ± 0.62 µM; against hBACE 1 (setting [2]), 143.2 ± 0.21 µM; on hBACE 1 (hBACE 1 PIC50 (μM)) it was 145 µM.

Turning to `[H]/N=C(/N)NN=C(/C=C/c1cc(OC)ccc1OC)c1cn(Cc2ccc(CCCC)cc2)c2ccccc12` [Compound 3l, (Z)-2-((E)-1-(1-(4-Butylbenzyl)-1H-indol-3-yl)-3-(2,5-dimethoxyphenyl)allylidene)hydrazine-1-carboximidamide], the IC50 in test [1] is 58.4 ± 0.91 µM; at hBACE 1 (setting [2]), 196 ± 3.04 µM; on hBACE 1 (hBACE 1 PIC50 (μM)), 195 µM.

With `[H]/N=C(/N)NN=C(/C=C/c1ccc(C#N)cc1)c1cn(Cc2ccccc2)c2ccccc12` [Compound 1l, (Z)-2-((E)-1-(1-Benzyl-1H-indol-3-yl)-3-(4-cyanophenyl)allylidene)hydrazine-1-carboximidamide], the 50% inhibitory concentration (IC50) in test [1] is 60.9 ± 2.53 µM; against hBACE 1 (setting [2]) it was 9.38 ± 0.5 µM; at hBACE 1 (hBACE 1 PIC50 (μM)), 9.33 µM.

As for `[H]/N=C(/N)NN=C(/C=C/c1cccc(OC)c1)c1cn(Cc2ccccc2)c2ccccc12` [Compound 1e, (Z)-2-((E)-1-(1-Benzyl-1H-indol-3-yl)-3-(3-methoxyphenyl)allylidene)hydrazine-1-carboximidamide], the results for the IC50 (in test [1]; at hBACE 1 (setting [2]); against hBACE 1 (hBACE 1 PIC50 (μM))) were 137.8 ± 0.14 µM, 117.2 ± 0.57 µM and 117 µM, respectively.

On to `[H]/N=C(/N)NN=C(/C=C/c1ccccc1)c1cn(Cc2ccc(F)cc2F)c2ccccc12` [Compound 2a, (Z)-2-((E)-1-(1-(2,4-Difluorobenzyl)-1H-indol-3-yl)-3-phenylallylidene)hydrazine-1-carboximidamide], for which the half-inhibitory concentration (IC50) in test [1] was 46.4 ± 1.63 µM; on hBACE 1 (setting [2]), 200.1 ± 1.98 µM; against hBACE 1 (hBACE 1 PIC50 (μM)), 200 µM.

As for `[H]/N=C(/N)NN=C(/C=C/c1cccc(OCc2ccccc2)c1)c1cn(Cc2ccccc2)c2ccccc12` [Compound 1o, (Z)-2-((E)-1-(1-Benzyl-1H-indol-3-yl)-3-(3-(benzyloxy)phenyl)allylidene)hydrazine-1-carboximidamide], the IC50 in test [1] was 126.6 ± 0.99 µM; against hBACE 1 (setting [2]), 12.8 ± 0.42 µM; against hBACE 1 (hBACE 1 PIC50 (μM)) it was 12.9 µM.

The term IC50 denotes the concentration needed to halve the response being measured.
